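How tested: cells in 96-well plates exposed to compound for 48 hours at five concentrations. Here, GI50 denotes the concentration required for 50% inhibition of growth. The concentration for full growth arrest is given as TGI.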
Legend:
Experiment in all cases: NCI anticancer screen, dose series, 48 h
UACC-257 melanoma = test system: UACC-257 melanoma
MALME-3M melanoma = test system: MALME-3M melanoma
NCI-H226 lung = test system: NCI-H226 lung
SW-620 colon = test system: SW-620 colon
MOLT-4 leukemia = test system: MOLT-4 leukemia
TK-10 renal = test system: TK-10 renal
HCC-2998 colon = test system: HCC-2998 colon
M14 melanoma = test system: M14 melanoma
SR leukemia = test system: SR leukemia
RXF 393 renal = test system: RXF 393 renal

SMILES | TGI (UACC-257 melanoma) [µM] | TGI (MALME-3M melanoma) [µM] | TGI (NCI-H226 lung) [µM] | TGI (SW-620 colon) [µM] | TGI (MOLT-4 leukemia) [µM] | TGI (TK-10 renal) [µM] | TGI (HCC-2998 colon) [µM] | TGI (M14 melanoma) [µM] | TGI (SR leukemia) [µM] | TGI (RXF 393 renal) [µM] | GI50 (MALME-3M melanoma) [µM] | GI50 (MOLT-4 leukemia) [µM] | GI50 (HCC-2998 colon) [µM] | GI50 (SR leukemia) [µM]
Nc1ccccc1N/C(=C\C(=O)C(Cl)(Cl)Cl)c1ccccc1 | 79.1 | 37.7 | > 100 | > 100 | > 100 | > 100 | 34.9 | 42.2 | > 100 | 53.4 |  |  |  | 
CCOC(=O)C1CCn2c(nc3c2c(=O)n(C)c(=O)n3C)S1 (stereo not drawn) | > 100 | > 100 | > 100 | > 100 | > 100 | > 100 |  | > 100 | > 100 | > 100 |  |  |  | 
O=[N+]([O-])c1ccc2c(c1)c(N=NC(=S)NC1CCCCC1)c(O)n2CN1CCOCC1 | 22.7 | 24.4 | 66 | > 100 | > 100 | 19.4 | 17.6 | 21.8 | 21.5 | 29 |  |  |  | 
O=C(CCN1CC2CCC(CC2)C1)c1cccs1 | 30.4 | 39.3 | > 100 | 12.2 | 18.7 | 23.3 | 29 | 31.8 | 24.6 | 37 |  |  |  | 
CCC(C)C1NC(=O)C2CCCN2C(=O)C(CC2CO2)OC(=O)CCNC(=O)C(C)N(C)C(=O)C(C(C)C)N(C)C1=O (stereo not drawn) |  | 0.0641 | > 17.1 | > 100 |  | > 100 | > 100 | 0.0179 |  | > 100 |  |  |  | 
CN1C2CCC1C(C(O)c1ccccc1[N+](=O)[O-])C(=O)C2 (stereo not drawn) | > 100 | > 100 | 73.3 | > 100 | > 100 | > 100 | > 100 | > 100 |  |  |  |  |  | 
C/C(=N\NC(=O)c1cccnc1)c1cccc(/C(C)=N/NC(=O)c2cccnc2)n1 | 35.4 | 9.81 |  | > 100 | 12 | > 100 | > 100 | 13.6 | > 100 |  | 2.6 | 2.45 | 2.17 | 4.56
O=[n+]1c2c(n([O-])c3ccccc31)-c1cccc3cccc-2c13 | > 100 |  | > 100 | > 100 | > 100 | > 100 | > 100 | > 100 | > 100 | > 100 |  |  |  | 
COC(=O)C1C(C)N1C (stereo not drawn) | > 100 |  | > 100 | > 100 | > 100 | > 100 | > 100 | > 100 |  | > 100 |  |  |  | 
C[C@]12CC[C@@H]3c4ccccc4CC[C@H]3[C@@H]1CC[C@@H]2O | > 100 | > 100 |  | > 100 | > 100 | > 100 | > 100 | > 100 | > 100 | > 100 |  |  |  | 
O=S(=O)(/N=C(\NO)Nc1ccc(Cl)cc1)c1ccc(S(=O)(=O)c2ccccc2)s1 | 41 | 41.9 | 52.1 | > 100 | 35.9 | 66.3 | 29.7 | 37.4 |  | 87.7 |  |  |  | 
NCCNc1nc(N2CCCC2)c2nc(Cl)c(NCc3ccccc3)nc2n1 | 4 | 3.73 | 15.7 | 4.73 | 4.48 | 3.25 | 2.88 | 3.16 | 2.95 | 2.91 |  |  |  | 
NNC(=O)c1ccccc1Nc1ccccc1C(=O)NN | > 100 | > 100 | > 100 | > 100 | > 100 | > 100 | > 100 | > 100 |  | > 100 |  |  |  | 
[O-][N+](CCO)(CCO)c1ncnc2nc[nH]c12 | > 100 | > 100 | > 100 | > 100 | > 100 | > 100 | > 100 | > 100 | > 100 | > 100 |  |  |  | 
COC(=O)C1C(O)CCC2CN3CCc4c([nH]c5cccc(OC)c45)C3CC21 (stereo not drawn) | > 100 | > 100 | > 100 | > 100 | > 100 | > 100 | > 100 | > 100 | > 100 | > 100 |  |  |  | 
OCCOCn1cc(Cn2ncc3c(SCc4ccccc4)ncnc32)nn1 | > 100 | > 100 | > 100 | > 100 | 48.3 | > 100 | > 100 | > 100 |  | > 100 |  |  |  | 
COc1c2c(cc3c1C(O)N1CC[C@]34[C@H]3O[C@H]3[C@H](OC)C[C@@H]14)OCO2 (stereo partly drawn) | > 100 | > 100 | > 100 | > 100 | > 100 | > 100 | > 100 | > 100 | 88.6 | > 100 |  |  |  | 
CC(=O)OC1CC(O)CC2=CCC3C4CCC(C(C)(O)C(O)CC5COC(=O)C5C)C4(C)CCC3C21C (stereo not drawn) | > 25 |  | > 25 | > 25 | > 25 | > 25 | > 25 | > 25 | > 25 | > 25 |  |  |  | 

Reference: PubChem BioAssay (NCI)
